According to ChEMBL document CHEMBL1201862, “PubChem BioAssay data set” (2004):
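The compound was tested at five concentrations on cells cultured in 96-well plates, with a 48-hour exposure period. Here, GI50 denotes the concentration required for 50% inhibition of growth.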 The source made the active and inactive calls. Cut-off read from the data, not from the text of the source: active = GI50 up to about 1.1 µM and inactive = higher.

What was measured:
Experiment in all cases: growth of human tumour cells (NCI), 48 h
[1] = system: UO-31
[2] = system: SK-MEL-2
[3] = system: RPMI-8226
[4] = system: MDA-N
[5] = system: NCI-H522
[6] = system: OVCAR-3
[7] = system: K562
[8] = system: LOX IMVI
[9] = system: SF-295
[10] = system: SK-MEL-5
[11] = system: MOLT-4
[12] = system: COLO 205
[13] = system: OVCAR-4
[14] = system: HCT-116
[15] = system: EKVX
[16] = system: KM12
[17] = system: SK-MEL-28
[18] = system: U-251
[19] = system: M14
[20] = system: 786-0

Row | Structure (SMILES) | GI50 [1] | GI50 [2] | GI50 [3] | GI50 [4] | GI50 [5] | GI50 [6] | GI50 [7] | GI50 [8] | GI50 [9] | GI50 [10] | GI50 [11] | GI50 [12] | GI50 [13] | GI50 [14] | GI50 [15] | GI50 [16] | GI50 [17] | GI50 [18] | GI50 [19] | GI50 [20]
1 | CNc1ccc(C)cc1S(=O)(=O)c1ccccc1[N+](=O)[O-] | 52.5 µM (inactive) | 62.4 µM (inactive) | 49.4 µM (inactive) | 26.2 µM (inactive) | 31.8 µM (inactive) | 43.2 µM (inactive) | 26.7 µM (inactive) | 30.9 µM (inactive) | 42.1 µM (inactive) | 18.2 µM (inactive) | 18.4 µM (inactive) | 65.6 µM (inactive) | 25.2 µM (inactive) | 48.4 µM (inactive) | 51.8 µM (inactive) | 59.4 µM (inactive) | 38.8 µM (inactive) | 57.7 µM (inactive) | 40.6 µM (inactive) | 64.6 µM (inactive)
2 | COC(=O)C12Oc3ccc(-c4ccc5c(c4O)C(O)=C4C(=O)CC(C)C(O)C4(C(=O)OC)O5)c(O)c3C(O)=C1C(=O)CC(C)C2O (stereo not given) | 0.156 µM (active) | 0.0798 µM (active) | 0.0494 µM (active) | 0.125 µM (active) | 0.0304 µM (active) | 0.0719 µM (active) | 0.0753 µM (active) | 0.151 µM (active) | 0.211 µM (active) | 0.0394 µM (active) | 0.0641 µM (active) | 0.0656 µM (active) | 0.467 µM (active) | 0.126 µM (active) | 0.0805 µM (active) | 0.0555 µM (active) | 0.0397 µM (active) | 0.0525 µM (active) | 0.104 µM (active) | 0.314 µM (active)
3 | CN(C)CCCn1c(Cc2ccc(Cl)cc2)nc2cc(C(F)(F)F)ccc21 | 0.301 µM (active) | 16.9 µM (inactive) | 40.8 µM (inactive) | 12 µM (inactive) | 14.6 µM (inactive) | 14.5 µM (inactive) | 6.41 µM (inactive) | 14.5 µM (inactive) | 17.5 µM (inactive) | 15.8 µM (inactive) | 11.2 µM (inactive) | 10.7 µM (inactive) | 13.6 µM (inactive) | 12.5 µM (inactive) | 17.4 µM (inactive) | 14.3 µM (inactive) | 17.9 µM (inactive) | 15.3 µM (inactive) | 12.7 µM (inactive) | 13.9 µM (inactive)
4 | COc1cc(C2SCC(=O)N2c2ccc(Cl)cc2)cc(OC)c1OC (stereo not given) | 1.19 µM (inactive) | 8.51 µM (inactive) | 8.93 µM (inactive) | 3.05 µM (inactive) | 31.8 µM (inactive) | 22.2 µM (inactive) | 0.11 µM (active) | 1.03 µM (active) | 4.95 µM (inactive) | 1.26 µM (inactive) | 1.69 µM (inactive) | 1.94 µM (inactive) | 5.81 µM (inactive) | 8.11 µM (inactive) | 3.15 µM (inactive) | 3.38 µM (inactive) | > 72.9 µM (inactive) | > 79.4 µM (inactive) | 0.266 µM (active) | > 58.5 µM (inactive)
5 | O=C(O)CCSC(CC1(c2ccc(Cl)cc2)NC(=O)CCS1)c1ccccc1 (stereo not given) | 20.7 µM (inactive) | 18.7 µM (inactive) | 3.56 µM (inactive) | 12.6 µM (inactive) | 15.1 µM (inactive) | 20.2 µM (inactive) | 10.8 µM (inactive) | 14.6 µM (inactive) | 21.2 µM (inactive) | 13 µM (inactive) | 12.5 µM (inactive) | 22.3 µM (inactive) | 15 µM (inactive) | 4.71 µM (inactive) | 21.5 µM (inactive) | 3.56 µM (inactive) | 17.9 µM (inactive) | 10.4 µM (inactive) | 19.4 µM (inactive) | 6.7 µM (inactive)
6 | CC(C)NC(=O)OCc1c(COC(=O)NC(C)C)c(-c2cc[n+](COC(=O)C(C)(C)C)cc2)n2c1CCC2 | > 100 µM (inactive) | > 100 µM (inactive) | > 100 µM (inactive) | > 100 µM (inactive) | > 100 µM (inactive) | > 100 µM (inactive) | > 100 µM (inactive) | > 100 µM (inactive) | > 100 µM (inactive) | > 100 µM (inactive) | > 100 µM (inactive) | > 100 µM (inactive) | > 100 µM (inactive) | > 100 µM (inactive) | > 100 µM (inactive) | > 100 µM (inactive) | > 100 µM (inactive) | > 100 µM (inactive) | > 100 µM (inactive) | > 100 µM (inactive)
7 | CS(=O)(=O)Nc1ccc2c(c1)oc(=O)c1ccccc12 | 38.5 µM (inactive) | > 100 µM (inactive) | > 100 µM (inactive) | > 100 µM (inactive) | > 100 µM (inactive) | > 100 µM (inactive) | > 100 µM (inactive) | > 100 µM (inactive) | > 100 µM (inactive) | > 100 µM (inactive) | > 100 µM (inactive) | > 100 µM (inactive) | > 100 µM (inactive) | > 100 µM (inactive) | 45.4 µM (inactive) | > 100 µM (inactive) | > 100 µM (inactive) | > 100 µM (inactive) | > 100 µM (inactive) | > 100 µM (inactive)
8 | Cc1nc(-c2ccccc2)cn2c1nc1ccccc12 | 13.6 µM (inactive) | 20.2 µM (inactive) | 41.1 µM (inactive) | 21.8 µM (inactive) | 24.9 µM (inactive) | 26.7 µM (inactive) | > 61.7 µM (inactive) | 20.8 µM (inactive) | 23.9 µM (inactive) | 13.9 µM (inactive) | 44 µM (inactive) | 37.9 µM (inactive) | 20.9 µM (inactive) | 25.9 µM (inactive) | 25.2 µM (inactive) | 20.8 µM (inactive) | 30.5 µM (inactive) | 18.6 µM (inactive) | 30.5 µM (inactive) | 21 µM (inactive)
9 | N#Cc1nc(/C=C/c2cccnc2)oc1N | > 100 µM (inactive) | > 100 µM (inactive) | > 100 µM (inactive) | > 100 µM (inactive) | > 100 µM (inactive) | > 100 µM (inactive) | > 100 µM (inactive) | > 100 µM (inactive) | > 100 µM (inactive) | > 100 µM (inactive) | > 100 µM (inactive) | > 100 µM (inactive) | > 100 µM (inactive) | > 100 µM (inactive) | > 100 µM (inactive) | > 100 µM (inactive) | > 100 µM (inactive) | > 100 µM (inactive) | > 100 µM (inactive) | > 100 µM (inactive)
10 | O=C(NCCCCCCCCNC(=O)Nc1cccc2ccccc12)Nc1cccc2ccccc12 | 21.4 µM (inactive) | 83.9 µM (inactive) | > 100 µM (inactive) | 20.3 µM (inactive) | 16.1 µM (inactive) | 36.5 µM (inactive) | 14.5 µM (inactive) | 8.34 µM (inactive) | 28.5 µM (inactive) | 42.3 µM (inactive) | 41.6 µM (inactive) | 35.6 µM (inactive) | 1.45 µM (inactive) | 9.55 µM (inactive) | 62.1 µM (inactive) | > 100 µM (inactive) | 57.7 µM (inactive) | 2.76 µM (inactive) | > 100 µM (inactive) | 10.1 µM (inactive)
